According to ChEMBL document CHEMBL1139874, “New diphenylacetylenes as probes for positron emission tomographic imaging of amyloid plaques” (J Med Chem, 2007):

Assays:
[1] = system: Spleen; test: Biodistribution in ICR mouse spleen at 5 to 10 uCi, iv after 1 hr; assay type: ADME, organism-based; details: in vivo
[2] = system: Muscle tissue; test: Biodistribution in ICR mouse muscle at 5 to 10 uCi, iv after 2 mins; assay type: ADME, organism-based; details: in vivo
[3] = system: Zone of skin; test: Biodistribution in ICR mouse skin at 5 to 10 uCi, iv after 2 mins; assay type: ADME, organism-based; details: in vivo
[4] = system: Liver; test: Biodistribution in ICR mouse liver at 5 to 10 uCi, iv after 1 hr; assay type: ADME, organism-based; details: in vivo
[5] = system: Brain; test: Biodistribution in ICR mouse brain at 5 to 10 uCi, iv after 1 hr; assay type: ADME, organism-based; details: in vivo
[6] = system: Kidney; test: Biodistribution in ICR mouse kidney at 5 to 10 uCi, iv after 30 mins; assay type: ADME, organism-based; details: in vivo, 0.5 h
[7] = system: Kidney; test: Biodistribution in ICR mouse kidney at 5 to 10 uCi, iv after 1 hr; assay type: ADME, organism-based; details: in vivo
[8] = system: Heart; test: Biodistribution in ICR mouse heart at 5 to 10 uCi, iv after 2 mins; assay type: ADME, organism-based; details: in vivo
[9] = system: Lung; test: Biodistribution in ICR mouse lung at 5 to 10 uCi, iv after 1 hr; assay type: ADME, organism-based; details: in vivo
[10] = system: Heart; test: Biodistribution in ICR mouse heart at 5 to 10 uCi, iv after 1 hr; assay type: ADME, organism-based; details: in vivo
[11] = system: Brain; test: Biodistribution in ICR mouse brain at 5 to 10 uCi, iv after 2 mins; assay type: ADME, organism-based; details: in vivo
[12] = system: Muscle tissue; test: Biodistribution in ICR mouse muscle at 5 to 10 uCi, iv after 30 mins; assay type: ADME, organism-based; details: in vivo, 0.5 h
[13] = system: Liver; test: Biodistribution in ICR mouse liver at 5 to 10 uCi, iv after 2 mins; assay type: ADME, organism-based; details: in vivo
[14] = system: Muscle tissue; test: Biodistribution in ICR mouse muscle at 5 to 10 uCi, iv after 2 hrs; assay type: ADME, organism-based; details: in vivo
[15] = Partition coefficient, log P at pH 7.4; assay type: physicochemical; details: octanol/water
[16] = system: Spleen; test: Biodistribution in ICR mouse spleen at 5 to 10 uCi, iv after 2 mins; assay type: ADME, organism-based; details: in vivo
[17] = system: Liver; test: Biodistribution in ICR mouse liver at 5 to 10 uCi, iv after 2 hrs; assay type: ADME, organism-based; details: in vivo
[18] = system: Bone; test: Biodistribution in ICR mouse bone at 5 to 10 uCi, iv after 2 mins; assay type: ADME, organism-based, Bone element; details: in vivo
[19] = system: Liver; test: Biodistribution in ICR mouse liver at 5 to 10 uCi, iv after 30 mins; assay type: ADME, organism-based; details: in vivo, 0.5 h
[20] = system: Spleen; test: Biodistribution in ICR mouse spleen at 5 to 10 uCi, iv after 30 mins; assay type: ADME, organism-based; details: in vivo, 0.5 h
[21] = system: Blood; test: Biodistribution in ICR mouse blood at 5 to 10 uCi, iv after 1 hr; assay type: ADME, organism-based; details: in vivo
[22] = system: Zone of skin; test: Biodistribution in ICR mouse skin at 5 to 10 uCi, iv after 1 hr; assay type: ADME, organism-based; details: in vivo
[23] = system: Spleen; test: Biodistribution in ICR mouse spleen at 5 to 10 uCi, iv after 2 hrs; assay type: ADME, organism-based; details: in vivo
[24] = system: Zone of skin; test: Biodistribution in ICR mouse skin at 5 to 10 uCi, iv after 2 hrs; assay type: ADME, organism-based; details: in vivo
[25] = system: Kidney; test: Biodistribution in ICR mouse kidney at 5 to 10 uCi, iv after 2 mins; assay type: ADME, organism-based; details: in vivo
[26] = system: Lung; test: Biodistribution in ICR mouse lung at 5 to 10 uCi, iv after 2 mins; assay type: ADME, organism-based; details: in vivo
[27] = system: Bone; test: Biodistribution in ICR mouse bone at 5 to 10 uCi, iv after 1 hr; assay type: ADME, organism-based, Bone element; details: in vivo
[28] = system: Bone; test: Biodistribution in ICR mouse bone at 5 to 10 uCi, iv after 2 hrs; assay type: ADME, organism-based, Bone element; details: in vivo
[29] = system: Brain; test: Biodistribution in ICR mouse brain at 5 to 10 uCi, iv after 2 hrs; assay type: ADME, organism-based; details: in vivo
[30] = system: Bone; test: Biodistribution in ICR mouse bone at 5 to 10 uCi, iv after 30 mins; assay type: ADME, organism-based, Bone element; details: in vivo, 0.5 h
[31] = system: Lung; test: Biodistribution in ICR mouse lung at 5 to 10 uCi, iv after 2 hrs; assay type: ADME, organism-based; details: in vivo
[32] = system: Blood; test: Biodistribution in ICR mouse blood at 5 to 10 uCi, iv after 2 hrs; assay type: ADME, organism-based; details: in vivo
[33] = system: Zone of skin; test: Biodistribution in ICR mouse skin at 5 to 10 uCi, iv after 30 mins; assay type: ADME, organism-based; details: in vivo, 0.5 h
[34] = system: Kidney; test: Biodistribution in ICR mouse kidney at 5 to 10 uCi, iv after 2 hrs; assay type: ADME, organism-based; details: in vivo
[35] = system: Blood; test: Biodistribution in ICR mouse blood at 5 to 10 uCi, iv after 2 mins; assay type: ADME, organism-based; details: in vivo
[36] = system: Muscle tissue; test: Biodistribution in ICR mouse muscle at 5 to 10 uCi, iv after 1 hr; assay type: ADME, organism-based; details: in vivo
[37] = system: Heart; test: Biodistribution in ICR mouse heart at 5 to 10 uCi, iv after 30 mins; assay type: ADME, organism-based; details: in vivo, 0.5 h
[38] = system: Lung; test: Biodistribution in ICR mouse lung at 5 to 10 uCi, iv after 30 mins; assay type: ADME, organism-based; details: in vivo, 0.5 h
[39] = system: Blood; test: Biodistribution in ICR mouse blood at 5 to 10 uCi, iv after 30 mins; assay type: ADME, organism-based; details: in vivo, 0.5 h
[40] = system: Heart; test: Biodistribution in ICR mouse heart at 5 to 10 uCi, iv after 2 hrs; assay type: ADME, organism-based; details: in vivo
[41] = system: Brain; test: Biodistribution in ICR mouse brain at 5 to 10 uCi, iv after 30 mins; assay type: ADME, organism-based; details: in vivo, 0.5 h

SMILES: CN(C)c1ccc(C#Cc2ccc(OCCOCC[18F])cc2)cc1
- Drug uptake [1]: 2.38 % ID/g
- Drug uptake [2]: 0.91 % ID/g
- Drug uptake [3]: 0.85 % ID/g
- Drug uptake [4]: 9.99 % ID/g
- Drug uptake [5]: 2.06 % ID/g
- Drug uptake [6]: 4.75 % ID/g
- Drug uptake [7]: 4.79 % ID/g
- Drug uptake [8]: 10.5 % ID/g
- Drug uptake [9]: 3.82 % ID/g
- Drug uptake [10]: 2.48 % ID/g
- Drug uptake [11]: 5.41 % ID/g
- Drug uptake [12]: 1.38 % ID/g
- Drug uptake [13]: 19.3 % ID/g
- Drug uptake [14]: 1.03 % ID/g
- logD [15]: 3.12
- Drug uptake [16]: 5.12 % ID/g
- Drug uptake [17]: 8.85 % ID/g
- Drug uptake [18]: 1.78 % ID/g
- Drug uptake [19]: 11.2 % ID/g
- Drug uptake [20]: 2.94 % ID/g
- Drug uptake [21]: 5.68 % ID/g
- Drug uptake [22]: 1.71 % ID/g
- Drug uptake [23]: 2.31 % ID/g
- Drug uptake [24]: 1.67 % ID/g
- Drug uptake [25]: 12.9 % ID/g
- Drug uptake [26]: 11.1 % ID/g
- Drug uptake [27]: 1.36 % ID/g
- Drug uptake [28]: 1.65 % ID/g
- Drug uptake [29]: 1.34 % ID/g
- Drug uptake [30]: 1.41 % ID/g
- Drug uptake [31]: 3.38 % ID/g
- Drug uptake [32]: 5.17 % ID/g
- Drug uptake [33]: 2.23 % ID/g
- Drug uptake [34]: 4.16 % ID/g
- Drug uptake [35]: 7.33 % ID/g
- Drug uptake [36]: 1.21 % ID/g
- Drug uptake [37]: 2.82 % ID/g
- Drug uptake [38]: 4.66 % ID/g
- Drug uptake [39]: 6.13 % ID/g
- Drug uptake [40]: 2.11 % ID/g
- Drug uptake [41]: 3.69 % ID/g
